Measured values: patent publication US6610744B2, “Methods of treatment with compounds having RARα receptor specific or selective activity” (Allergan, Inc., priority 1995, dated 2003)
Values after ≈ are worked out from the molar mass of the structure shown.

What was measured:
[1] = system: AML-193 cells (acute monocytic leukemia); assay: AML 193 cell culture assay (3H-thymidine incorporation); type: cell-based, human; details: FIG. 3; low concentrations
Protocol: (§1) All trans-retinoic acid (t-RA) (Sigma Chemicals Co., St. Louis, Mo.) was stored at −70° C. Prior to each experiment the compound was dissolved in 100% ethanol at 1 mM and diluted in culture medium immediately before use. All experiments were performed in subdued light. Controls were assayed using the same concentration of ethanol as present in the experimental plates and this concentration of diluent had no effect in either assay.
AML-193 was established from the blast cells classified as M5 Acute Monocyte Leukemia. The growth factor, […] (GM-CSF) was required to establish this cell line and growth factors are necessary for its continuous proliferation in chemically defined medium. AML-193 cells were grown and maintained in Iscove's modified Dulbecco's medium supplemented with 10% fetal bovine serum, glutamine and antibiotics with 5 μg/ml insulin (Sigma Chemical Co.) and 2 ng/ml rh GM-CSF (R and D Systems). The cells were diluted to a concentration of 3×10^5/ml twice a week.
(§2) AML-193 cells were plated in a 96 well round bottom microtiter plate (Costar) at a density of 1,000 cells/well. To appropriate wells, retinoid test compounds were added at the final concentrations indicated for a final volume of 150 μl/well. The plates were incubated for 96 hours at 37° C. in a humidified atmosphere of 5% CO2 in air. Subsequently, 1 μCi of [5′-^3H]-thymidine (Amersham, U.K., 43 Ci/mmol specific activity) in 25 μl culture medium was added to each well and the cells were incubated for an additional 6 hours.
(§3) The cell lines were then processed as follows: the cellular DNA was precipitated with 10% trichloroacetic acid onto glass fiber filter mats using a SKATRON multi-well cell harvester (Skatron Instruments, Sterling Va.). Radioactivity incorporated into DNA, as a direct measurement of cell growth, was measured by liquid scintillation counting. The numbers represent the mean disintegrations per minute of incorporated thymidine from triplicate wells±SEM.

[2] = system: retinal pigment epithelium (RPE) cells; assay: Primary RPE culture proliferation; type: cell-based, human; details: FIG. 5; 10^−10 to 10^−6 M, six days treatment
Protocol: Primary cultures of human retinal pigment epithelium (RPE) were established from eyes as previously described, (Campochiaro et al., Invest. Opthal & Vis. Sci. 32:65-72 (1991)). 5×10^4 Cells were plated in 16-mm wells of 24-well multiwell plates in Dulbecco's modified Eagle's medium (DMEM Gibco) containing 10% fetal bovine serum (FBS). Cells were treated with ethanol alone (control), ATRA (10^−10 to 10^−6 M) in ethanol, and Compound 42 (10^−10 to 10^−6 M) in ethanol. Cells were fed with fresh media containing the appropriate concentrations of these compounds every two days for a total of six days treatment. Cells were removed from the plates via treatment with trypsin and the number of cells were counted with an electronic cell counter.

[3] = system: RPMI 8226 cells (malignant myeloma); assay: RPMI 8226 cell culture assay (3H-thymidine incorporation); type: cell-based, human; details: FIG. 1; low concentration range 10^−12 to approximately 10^−9
Protocol: as §1
The cell lines, RPMI 8226, ME-180 and AML-193 were obtained from the American Type Culture Collection (ATCC, Rockville, Md.). RPMI 8226 is a human hematopoietic cell line obtained from the peripheral blood of a patient with multiple myeloma. The cells resemble the lymphoblastoid cells of other human lymphocyte cell lines and secrete […] light chains of immunoglobulin. RPMI-8226 cells are grown in RPMI medium (Gibco) supplemented with 10% fetal bovine serum, glutamine and antibiotics. The cells were maintained as suspension cultures grown at 37° C. in a humidified atmosphere of 5% CO2 in air. The cells were diluted to a concentration of 1×10^5/ml twice a week.
as §2, with “The method used for determination of the incorporation of radiolabeled thymidine was adapted from the procedure described by Shrivastav et al. RPMI-8226” for “AML-193”, “U.K.” for “U.K.,”, “hours. The cultures were further processed as described below.” for “hours.”
as §3

[4] = system: limb bud mesenchymal cells; assay: Chondrogenesis suppression bioassay (teratogenic potency); type: cell-based; details: read-out: IC50 (50% inhibition of chondrogenesis); mouse limb bud spot cultures, 96 hours after plating; greater IC50 signifies lesser teratogenecity
Protocol: High-density “spot” cultures of limb bud mesenchymal cells are used to compare the ability of various concentrations of test drugs to suppress chondrogenic differentiation as a bioassay. Forelimb buds of mouse embryos on day 12 of gestation (54±2 somites) are dissociated in a trypsin-EDTA solution, and the resultant single-cell suspension is plated as 20-μl spots (200,000 cells/spot) on plastic culture dishes. Retinoid concentrations ranging from 0.3 ng/ml to 3 μg/ml (1 nM−10 μM) are added to the culture medium (Eagle's MEM±10% fetal bovine serum, GIBCO) 24 hours after initial plating. Control cultures receive only the vehicle (ethanol, concentration≦1% by vol); Retinoic acid is used as a positive control in another set of cultures.
The cultures are terminated 96 hours after plating, at which time the medium is removed and the cells are fixed for 1 hour in 10% formalin containing 0.5% cetylpyridinium chloride. The cultures are rinsed in acetic acid and stained for 1 hour in 0.5% Alcian blue solution at pH 1.0, differentiated in 3% acetic acid, and then dehydrated in ethanol and scored for chondrogenesis under the microscope. An absence or reduction in the number of cartilage nodules in stained cultures as compared with control cultures is taken as a measure of suppression of chondrogenesis. The number of cartilage nodules stained in the whole spot, mean number of nodules, and standard deviations are calculated for four replicate cultures per treatment. […] The IC50 values are expressed in nanogram per mililiter (ng/ml) units. An IC50 value of greater concentration in this assay signifies lesser teratogenecity.

[5] = system: ovarian tumor cells; assay: EDR assay on cells from solid tumors of patients; type: cell-based, human; details: FIG. 4; tumors from 4 patients, four days with drug
Protocol: Freshly resected solid tumor biopsies were received within 24 hours of surgery. Species were processed for assay after retaining a portion of the tumor for paraffin embedding and histopathologic confirmation of specimen viability and tissue diagnosis. The remaining specimen was dissociated into small fragments using sterile scissors. The small tissue fragments were then exposed to collagenase and DNAase for 2 hours with mixing a CO2 incubator in order to release the tumor cells from the connective tissue stroma. The resulting cell suspension was washed, and cell counts determined from a cytospin preparation. Tumor cells were resuspended at 40,000 cells per ml in 0.3% agarose in RMPI 1640 supplemented with 15% FCS, glutamine and antibiotics, and 0.5 ml were plated into each well of a 24 well plate over 0.5 ml layer of 0.5% agarose. These culture conditions prevent cell adherence, thereby allowing only transformed cells to proliferate. Additionally, the cells grow into three dimensional spheroids, recapitulating their in vivo morphology.
Retinoid drugs were added 24 hours after plating to insure specimen reequilibration to a growth environment after the rigors of transport and processing. […] After the agarose-cell suspension was liquefied at 90° C., cells were harvested onto glass fiber filters, which were counted in 5 ml scintillation fluid using a Beckman 6500 liquid scintillation counter. […]

| SMILES | AML-193 cell proliferation at low concentrations [1] | RPE cell proliferation [2] | growth of RPMI 8226 cells at low concentration [3] | IC50 [4] [µg/mL] | ovarian tumor cell proliferation [5] |
| --- | --- | --- | --- | --- | --- |
| CC1=C(/C=C/C(C)=C/C=C/C(C)=C/C(=O)O)C(C)(C)CCC1 [ATRA, all trans retinoic acid, reference compound] | promotes cell proliferation | dose dependent decrease in RPE cell proliferation | facilitates growth | 0.055 (≈ 0.183 µM) | – |
| CC1(C)CCC(C)(C)c2cc(C(=O)Nc3ccc(C(=O)O)c(F)c3)ccc21 [Compound 2] | – | – | – | – | inhibits this tumor cell proliferation in a concentration dependent manner |
